Assay results taken from ChEMBL document CHEMBL4017512 (J Med Chem, 2017).

Columns and labels:
[1] = Cytotoxicity against human HCT116/VM46 cells assessed as reduction in cell viability after 72 hrs by phosphatase assay; format: cell-based; conditions: HCT-116/VM46, 72 h
[2] = tested on: L1210; assay: Antiproliferative activity against mouse L1210 cells after 72 hrs by phosphatase assay; format: functional, cell-based; conditions: L1210, 72 h
[3] = tested on: HCT-116; assay: Antiproliferative activity against human HCT116 cells after 72 hrs by phosphatase assay; format: functional, cell-based; conditions: HCT-116, 72 h

Structure (SMILES)	IC50 [1] [nM]	IC50 [2] [nM]	IC50 [3] [nM]
CC[C@]1(NC(=O)c2ccc3cccc(OC)c3c2)C[C@H]2CN(CCc3c([nH]c4ccccc34)[C@@](C(=O)OC)(c3cc4c(cc3OC)N(C)[C@H]3[C@@](O)(C(=O)OC)[C@H](OC(C)=O)[C@]5(CC)C=CCN6CC[C@]43[C@@H]65)C2)C1	70	10	13
CC[C@]1(NC(=O)c2cocn2)C[C@H]2CN(CCc3c([nH]c4ccccc34)[C@@](C(=O)OC)(c3cc4c(cc3OC)N(C)[C@H]3[C@@](O)(C(=O)OC)[C@H](OC(C)=O)[C@]5(CC)C=CCN6CC[C@]43[C@@H]65)C2)C1	90	4.5	4
CC[C@]1(NC(=O)c2ccc3c(c2)CCN3)C[C@H]2CN(CCc3c([nH]c4ccccc34)[C@@](C(=O)OC)(c3cc4c(cc3OC)N(C)[C@H]3[C@@](O)(C(=O)OC)[C@H](OC(C)=O)[C@]5(CC)C=CCN6CC[C@]43[C@@H]65)C2)C1	60	5.1	6.7
CC[C@]1(NC(=O)c2cnccn2)C[C@H]2CN(CCc3c([nH]c4ccccc34)[C@@](C(=O)OC)(c3cc4c(cc3OC)N(C)[C@H]3[C@@](O)(C(=O)OC)[C@H](OC(C)=O)[C@]5(CC)C=CCN6CC[C@]43[C@@H]65)C2)C1	550	40	20
CC[C@]1(NC(=O)c2ccc(C)cc2)C[C@H]2CN(CCc3c([nH]c4ccccc34)[C@@](C(=O)OC)(c3cc4c(cc3OC)N(C)[C@H]3[C@@](O)(C(=O)OC)[C@H](OC(C)=O)[C@]5(CC)C=CCN6CC[C@]43[C@@H]65)C2)C1	4.5	0.5	0.45
CC[C@]1(NC(=O)Cc2ccccc2)C[C@H]2CN(CCc3c([nH]c4ccccc34)[C@@](C(=O)OC)(c3cc4c(cc3OC)N(C)[C@H]3[C@@](O)(C(=O)OC)[C@H](OC(C)=O)[C@]5(CC)C=CCN6CC[C@]43[C@@H]65)C2)C1	550	55	55
CC[C@]1(NC(=O)c2ccccc2OC)C[C@H]2CN(CCc3c([nH]c4ccccc34)[C@@](C(=O)OC)(c3cc4c(cc3OC)N(C)[C@H]3[C@@](O)(C(=O)OC)[C@H](OC(C)=O)[C@]5(CC)C=CCN6CC[C@]43[C@@H]65)C2)C1	100	30	10
CC[C@]1(NC(=O)c2ccc3ccccc3c2)C[C@H]2CN(CCc3c([nH]c4ccccc34)[C@@](C(=O)OC)(c3cc4c(cc3OC)N(C)[C@H]3[C@@](O)(C(=O)OC)[C@H](OC(C)=O)[C@]5(CC)C=CCN6CC[C@]43[C@@H]65)C2)C1	6.4	1.9	2.3
CC[C@]1(NC(=O)c2ccc(N)cc2)C[C@H]2CN(CCc3c([nH]c4ccccc34)[C@@](C(=O)OC)(c3cc4c(cc3OC)N(C)[C@H]3[C@@](O)(C(=O)OC)[C@H](OC(C)=O)[C@]5(CC)C=CCN6CC[C@]43[C@@H]65)C2)C1	4.8	0.4	0.4
CC[C@]1(NC(=O)c2ccc(OC(F)(F)F)cc2)C[C@H]2CN(CCc3c([nH]c4ccc(F)cc34)[C@@](C(=O)OC)(c3cc4c(cc3OC)N(C)[C@H]3[C@@](O)(C(=O)OC)[C@H](OC(C)=O)[C@]5(CC)C=CCN6CC[C@]43[C@@H]65)C2)C1	1	0.6	0.7
CC[C@]1(NC(=O)c2ccc(NC)cc2)C[C@H]2CN(CCc3c([nH]c4ccccc34)[C@@](C(=O)OC)(c3cc4c(cc3OC)N(C)[C@H]3[C@@](O)(C(=O)OC)[C@H](OC(C)=O)[C@]5(CC)C=CCN6CC[C@]43[C@@H]65)C2)C1	6.2	0.38	0.33
CC[C@]1(NS(=O)(=O)c2c(C)cc(C)cc2C)C[C@H]2CN(CCc3c([nH]c4ccccc34)[C@@](C(=O)OC)(c3cc4c(cc3OC)N(C)[C@H]3[C@@](O)(C(=O)OC)[C@H](OC(C)=O)[C@]5(CC)C=CCN6CC[C@]43[C@@H]65)C2)C1	710	500	580
CC[C@]1(NC(=O)c2cccc(S(=O)(=O)F)c2)C[C@H]2CN(CCc3c([nH]c4ccccc34)[C@@](C(=O)OC)(c3cc4c(cc3OC)N(C)[C@H]3[C@@](O)(C(=O)OC)[C@H](OC(C)=O)[C@]5(CC)C=CCN6CC[C@]43[C@@H]65)C2)C1	570	40	30
CC[C@]1(NC(=O)/C=C/c2ccncc2)C[C@H]2CN(CCc3c([nH]c4ccccc34)[C@@](C(=O)OC)(c3cc4c(cc3OC)N(C)[C@H]3[C@@](O)(C(=O)OC)[C@H](OC(C)=O)[C@]5(CC)C=CCN6CC[C@]43[C@@H]65)C2)C1	50	0.6	0.7
CC[C@]1(NC(=O)/C=C/c2ccsc2)C[C@H]2CN(CCc3c([nH]c4ccccc34)[C@@](C(=O)OC)(c3cc4c(cc3OC)N(C)[C@H]3[C@@](O)(C(=O)OC)[C@H](OC(C)=O)[C@]5(CC)C=CCN6CC[C@]43[C@@H]65)C2)C1	20	0.5	0.6
CC[C@]1(NC(=O)c2ccccc2F)C[C@H]2CN(CCc3c([nH]c4ccccc34)[C@@](C(=O)OC)(c3cc4c(cc3OC)N(C)[C@H]3[C@@](O)(C(=O)OC)[C@H](OC(C)=O)[C@]5(CC)C=CCN6CC[C@]43[C@@H]65)C2)C1	75	8.4	7.7
CC[C@]1(NC(=O)c2ccc(Br)c(Br)c2)C[C@H]2CN(CCc3c([nH]c4ccccc34)[C@@](C(=O)OC)(c3cc4c(cc3OC)N(C)[C@H]3[C@@](O)(C(=O)OC)[C@H](OC(C)=O)[C@]5(CC)C=CCN6CC[C@]43[C@@H]65)C2)C1	80	60	40
CC[C@]1(NC(=O)c2ccc(OC)c(OC)c2)C[C@H]2CN(CCc3c([nH]c4ccccc34)[C@@](C(=O)OC)(c3cc4c(cc3OC)N(C)[C@H]3[C@@](O)(C(=O)OC)[C@H](OC(C)=O)[C@]5(CC)C=CCN6CC[C@]43[C@@H]65)C2)C1	1.4	0.06	0.07
CCc1ccc(C(=O)N[C@@]2(CC)C[C@H]3CN(CCc4c([nH]c5ccccc45)[C@@](C(=O)OC)(c4cc5c(cc4OC)N(C)[C@H]4[C@@](O)(C(=O)OC)[C@H](OC(C)=O)[C@]6(CC)C=CCN7CC[C@]54[C@@H]76)C3)C2)cc1	3.4	0.65	0.7
CC[C@]1(NC(=O)c2ccc3ncoc3c2)C[C@H]2CN(CCc3c([nH]c4ccccc34)[C@@](C(=O)OC)(c3cc4c(cc3OC)N(C)[C@H]3[C@@](O)(C(=O)OC)[C@H](OC(C)=O)[C@]5(CC)C=CCN6CC[C@]43[C@@H]65)C2)C1	30	0.6	0.6
CC[C@]1(NC(=O)C(C)(C)C)C[C@H]2CN(CCc3c([nH]c4ccccc34)[C@@](C(=O)OC)(c3cc4c(cc3OC)N(C)[C@H]3[C@@](O)(C(=O)OC)[C@H](OC(C)=O)[C@]5(CC)C=CCN6CC[C@]43[C@@H]65)C2)C1	4100	2800	3600
CC[C@]1(NC(=O)c2cn(C)cn2)C[C@H]2CN(CCc3c([nH]c4ccccc34)[C@@](C(=O)OC)(c3cc4c(cc3OC)N(C)[C@H]3[C@@](O)(C(=O)OC)[C@H](OC(C)=O)[C@]5(CC)C=CCN6CC[C@]43[C@@H]65)C2)C1	> 1000	80	50
CC[C@]1(NC(=O)c2ccc3c(c2)CCN3C(=O)OC(C)(C)C)C[C@H]2CN(CCc3c([nH]c4ccccc34)[C@@](C(=O)OC)(c3cc4c(cc3OC)N(C)[C@H]3[C@@](O)(C(=O)OC)[C@H](OC(C)=O)[C@]5(CC)C=CCN6CC[C@]43[C@@H]65)C2)C1	90	35	15
CCCCc1ccc(C(=O)N[C@@]2(CC)C[C@H]3CN(CCc4c([nH]c5ccccc45)[C@@](C(=O)OC)(c4cc5c(cc4OC)N(C)[C@H]4[C@@](O)(C(=O)OC)[C@H](OC(C)=O)[C@]6(CC)C=CCN7CC[C@]54[C@@H]76)C3)C2)cc1	70	30	20
CCCc1ccc(C(=O)N[C@@]2(CC)C[C@H]3CN(CCc4c([nH]c5ccccc45)[C@@](C(=O)OC)(c4cc5c(cc4OC)N(C)[C@H]4[C@@](O)(C(=O)OC)[C@H](OC(C)=O)[C@]6(CC)C=CCN7CC[C@]54[C@@H]76)C3)C2)cc1	35	4.3	4.8
CC[C@]1(NC(=O)c2ccc(OC(C)(C)C)cc2)C[C@H]2CN(CCc3c([nH]c4ccccc34)[C@@](C(=O)OC)(c3cc4c(cc3OC)N(C)[C@H]3[C@@](O)(C(=O)OC)[C@H](OC(C)=O)[C@]5(CC)C=CCN6CC[C@]43[C@@H]65)C2)C1	6.8	0.6	0.6
CC[C@]1(NC(=O)c2ccc(-c3ccccc3)cc2)C[C@H]2CN(CCc3c([nH]c4ccccc34)[C@@](C(=O)OC)(c3cc4c(cc3OC)N(C)[C@H]3[C@@](O)(C(=O)OC)[C@H](OC(C)=O)[C@]5(CC)C=CCN6CC[C@]43[C@@H]65)C2)C1	60	5.5	5.4
CC[C@]1(NC(=O)c2ccc(OC)c(OC)c2)C[C@H]2CN(CCc3c([nH]c4ccc(F)cc34)[C@@](C(=O)OC)(c3cc4c(cc3OC)N(C)[C@H]3[C@@](O)(C(=O)OC)[C@H](OC(C)=O)[C@]5(CC)C=CCN6CC[C@]43[C@@H]65)C2)C1	0.9	0.06	0.08
CC[C@]1(NC(=O)c2ccccc2C)C[C@H]2CN(CCc3c([nH]c4ccccc34)[C@@](C(=O)OC)(c3cc4c(cc3OC)N(C)[C@H]3[C@@](O)(C(=O)OC)[C@H](OC(C)=O)[C@]5(CC)C=CCN6CC[C@]43[C@@H]65)C2)C1	540	55	50
